Paper PMC12730333 (Biology, 2025)
Like-named read-outs stand apart in the source and are kept apart here. Marks after values point to notes of the source that are not given here.

Assays:
[1] = test system: promastigote forms of Leishmania amazonensis PH8 strain; experiment: Leishmanicidal activity assay on promastigotes (Alamar Blue, 24 h); assay type: cell-based; conditions: 10^6 parasites/mL
Procedure: Promastigote forms of Leishmania amazonensis (IFLA/BR/1967/PH8) were obtained from the Instituto Oswaldo Cruz Leishmania collection (CLIOC/Fiocruz). These cultures were maintained in Schneider’s Insect Medium, supplemented with 20% FBS and 1 μL/mL of Pen/Str at 26 °C. In vitro passages were conducted weekly, with promastigotes harvested during the late logarithmic phase for experiments on the 5th day of growth (Figure S1A).
MT was employed as the reference drug.

[2] = Cytotoxicity assay (Alamar Blue, 24 h) on L929 fibroblasts; assay type: cell-based, murine; conditions: mouse, L929 fibroblasts
Procedure: (§1) HepG2 cells (human hepatocellular carcinoma), VERO cells (African green monkey kidney), and J774.G8 macrophages (murine reticulosarcoma) were maintained in DMEM medium, supplemented with 10% FBS, 1% Pen/Str at 37 °C and 5% CO2 [70, 71]. For the cultivation of L929 fibroblasts (murine fibrosarcoma), RPMI 1640 medium without phenol red, supplemented with 2 mM L-glutamine, 10% FBS, and 1% Pen/Str, was used and maintained under the same conditions of temperature and CO2 as above.
(§2) J774.G8, VERO (10^5 cells/well), HepG2, L929 (0.5 × 10^5 cells/well) cells, and MPMs (3 × 10^5 cells/well) were centrifuged, resuspended in medium, plated in 96-well microplates, and incubated for 24 h under cultivation conditions. Subsequently, they were exposed to different concentrations of the compounds, serially diluted in medium to a final volume of 100 µL/well, and incubated for 24 h at 37 °C and 5% CO2. Cell viability was then assessed using the AB, and data were acquired by spectrophotometry. […] Untreated cells were used as negative controls, and cells exposed to the reference compound (MT) were used as positive controls. The Selectivity Index (SI) was calculated using the ratio SI = CC50 (mammalian cells)/IC50 (promastigote or amastigote forms of L. amazonensis).

[3] = Cytotoxicity assay (Alamar Blue, 24 h) on HepG2 cells; assay type: cell-based, human; conditions: human, HepG2 cells, 0.5 × 10^5 cells/well
Procedure: as §1, §2

[4] = test system: HepG2 cells; experiment: as above; assay type: cell-based, human; conditions: 0.5 × 10^5 cells/well
Procedure: as §1, §2

[5] = Cytotoxicity assay (Alamar Blue, 24 h) on VERO cells; assay type: cell-based, African green monkey; conditions: African green monkey, VERO cells, 10^5 cells/well
Procedure: as §1, §2

[6] = Cytotoxicity assay (Alamar Blue, 24 h) on J774.G8 macrophages; assay type: cell-based, murine; conditions: mouse, J774.G8 macrophages, 10^5 cells/well, read-out: CC50 J744.G8
Procedure: as §1, §2

[7] = Cytotoxicity assay (Alamar Blue, 24 h) on murine peritoneal macrophages; assay type: cell-based, Swiss Webster mice; conditions: male, Swiss Webster, mouse, murine peritoneal macrophages (MPMs, primary cells), 3 × 10^5 cells/well
Procedure: (§3) Murine peritoneal macrophages—MPMs (primary cells)—were isolated from male Swiss Webster mice stimulated with 1 mL of 3% Brewer’s thioglycollate medium, administered intraperitoneally. After 96 h, the animals were euthanized, and the MPMs were collected by peritoneal lavage with approximately 10 mL of RPMI 1640 medium. The cell suspension was centrifuged at 382× g for 10 min, and the pellet was resuspended in medium supplemented with 5% FBS, 1% Pen/Str, and 2 mM L-glutamine. All cell cultures were maintained at 37 °C and 5% CO2 [73]. For the experiments, all cell types were cultured until confluency.
as §2

[8] = test system: promastigote forms of Leishmania amazonensis PH8 strain; experiment: ROS production by flow cytometry, H2DCFDA, promastigotes; assay type: cell-based; conditions: exposed to IC50 (AA 10 µM), 24 h
[9] = test system: ex vivo amastigote forms of L. amazonensis LTB0016 strain; experiment: ROS production by flow cytometry, H2DCFDA, ex vivo amastigotes; assay type: cell-based, Leishmania amazonensis; conditions: exposed to IC50 (AA 10 µM), 24 h; for VIROS, Ex Vivo Amastigotes High Population / VIROS, Ex Vivo Amastigotes Low Population: MT/MC
[10] = test system: Leishmania amazonensis promastigote forms (PH8 strain); conditions: exposed to IC50, 24–168 h
Procedure: (§4) Promastigotes were kept at 26 °C, whereas amastigotes were kept at 32 °C. After 24 h, parasite viability was assessed using the AB colorimetric method, and the data were analyzed using a spectrophotometer as previously described [74]. […] Wells with medium and without parasites were used as blanks, and wells with medium and untreated parasites were used as negative controls. MT was employed as the reference drug.

[11] = test system: ex vivo amastigote forms of L. amazonensis LTB0016 strain; experiment: Leishmanicidal activity assay on ex vivo amastigotes (Alamar Blue, 24 h); conditions: for IC50: 24 h, read-out: IC50 Ama.; for efficacy compared with MT: concentrations below 0.28 μM; for inhibitory action compared with MT: doses < 0.10 μM
Source text: Ex vivo amastigote forms of L. amazonensis (MHOM/BR/77/LTB0016) were harvested and purified from lesions of male BALB/c mice. For this, a suspension containing 10^6 amastigotes was inoculated subcutaneously into the intraplantar region of the hind paw. After 30 days, the animals were euthanized, and their paws were excised and rinsed in 70% ethanol. The epidermis and necrotic tissues were mechanically dissociated. Subsequently, the paws were placed in Petri dishes containing RPMI 1640 medium supplemented with 5% FBS and 2% Pen/Str. […] The supernatant was transferred to another tube, homogenized with a syringe, and centrifuged at 764× g for another 15 min. The supernatant was discarded, and the pellet was resuspended in RPMI 1640 medium [69].
as §4

[12] = test system: promastigote forms of Leishmania amazonensis PH8 strain; experiment: Mitochondrial membrane potential (ΔΨm) by flow cytometry, TMRE, promastigotes; conditions: exposed to IC50, 24 h; for VIΔΨm, Promastigotes High Population / VIΔΨm, Promastigotes Low Population: (MT − MC)/MC; for VIΔΨm, Promastigotes Low Population: negative = depolarization
[13] = test system: ex vivo amastigote forms of L. amazonensis LTB0016 strain; experiment: Mitochondrial membrane potential (ΔΨm) by flow cytometry, TMRE, ex vivo amastigotes; conditions: for TMRE MFI, ex vivo Amastigotes High Population / TMRE MFI, ex vivo Amastigotes Low Population / VIΔΨm, ex vivo Amastigotes High Population / VIΔΨm, ex vivo Amastigotes Low Population: exposed to IC50, 24 h; for VIΔΨm, ex vivo Amastigotes High Population / VIΔΨm, ex vivo Amastigotes Low Population: (MT − MC)/MC
[14] = test system: L929 cells; experiment: Cytotoxicity assay (Alamar Blue, 24 h) on L929 fibroblasts; assay type: cell-based, murine; conditions: for CC50: 0.5 × 10^5 cells/well
Procedure: as §1, §2

[15] = test system: VERO cells; experiment: Cytotoxicity assay (Alamar Blue, 24 h) on VERO cells; assay type: cell-based, African green monkey; conditions: 10^5 cells/well
Procedure: as §1, §2

[16] = test system: J774.G8 cells; experiment: Cytotoxicity assay (Alamar Blue, 24 h) on J774.G8 macrophages; assay type: cell-based, murine; conditions: 10^5 cells/well, read-out: CC50 J744.G8
Procedure: as §1, §2

[17] = test system: murine peritoneal macrophages—MPMs; experiment: Cytotoxicity assay (Alamar Blue, 24 h) on murine peritoneal macrophages; assay type: cell-based, Swiss Webster mice; conditions: 3 × 10^5 cells/well
Procedure: as §3, §2

[18] = ex vivo amastigotes, 10^6 parasites/mL

CCNc1cc2[s+]c3cc(NCC)c(C)cc3nc2cc1C [NMB, new methylene blue]
IC50 [1]: 5.42 µM
IC50 ([1]; Leishmania amazonensis): < 5.5 µM
CC50 at 24 h ([2]; 0.5 × 10^5 cells/well): 280.2 ± 2.19 µM
viability at 24 h ([2]; lower concentrations (37–100 μM), read-out: viability of L929 cells): > 50%
CC50 at 24 h [3]: > 70 µM
CC50 [4]: 71.6 ± 3.15 µM
CC50 at 24 h [5]: 44.7 ± 3.4 µM
CC50 at 24 h [6]: 68.5 ± 2.12 µM
CC50 at 24 h [7]: 31.3 ± 5.72 µM
H2DCFDA MFI, Promastigotes High Population [8]: 1,512,521.00 *
H2DCFDA MFI, Promastigotes Low Population [8]: 31,489.80
H2DCFDA MFI, Ex Vivo Amastigotes High Population [9]: 131,669.43
H2DCFDA MFI, Ex Vivo Amastigotes Low Population [9]: 2940.57
VIROS, Ex Vivo Amastigotes High Population [9]: 0.84 ± 0.51
VIROS, Ex Vivo Amastigotes Low Population [9]: 1.62 ± 0.90
time from which proliferation was significantly (p < 0.05) reduced compared to MT [10]: ≥ 72 h
IC50 ([11]; Leishmania amazonensis): 2.66 ± 0.95 µM
efficacy compared with MT ([11]; ex vivo amastigotes): surpassed the efficacy of MT
inhibitory action compared with MT ([11]; ex vivo amastigotes): more inhibitory action
TMRE MFI, Promastigotes High Population [12]: 65,590.87
TMRE MFI, Promastigotes Low Population [12]: 4095.05
VIΔΨm, Promastigotes High Population [12]: 0.11 ± 0.08
VIΔΨm, Promastigotes Low Population [12]: −0.14 ± 0.20
loss of potential (ΔΨm) in HP ex vivo amastigotes / mitochondrial depolarization ([13]; IC50, 24 h): up to 61%
TMRE MFI, ex vivo Amastigotes High Population [13]: 277,557.80 *
TMRE MFI, ex vivo Amastigotes Low Population [13]: 3770.37
VIΔΨm, ex vivo Amastigotes High Population [13]: −0.43 ± 0.20
VIΔΨm, ex vivo Amastigotes Low Population [13]: −0.27 ± 0.06

CCNc1cc2[s+]c3cc(NCC)c(C)cc3nc2cc1C.F[P-](F)(F)(F)(F)F.F[P-](F)(F)(F)(F)F.F[P-](F)(F)(F)(F)F.F[P-](F)(F)(F)(F)F.N#[O+].[Ru+2].c1ccc(-c2ccccn2)nc1.c1ccc(-c2ccccn2)nc1 [NMB-B, new methylene blue B]
IC50 [1]: 5.48 µM
CC50 [14]: 270 ± 8.48 µM
viability of L929 cells ([14]; lower concentrations (37–100 μM)): > 50%
CC50 [4]: 34.2 ± 7.31 µM
CC50 [15]: 248 ± 32.9 µM
CC50 [16]: 130 ± 7.35 µM
CC50 [17]: 65.9 ± 1.69 µM
H2DCFDA MFI, Promastigotes High Population [8]: 2,639,177.00 **
H2DCFDA MFI, Promastigotes Low Population [8]: 39,191.97
H2DCFDA MFI, Ex Vivo Amastigotes High Population [9]: 131,896.27
H2DCFDA MFI, Ex Vivo Amastigotes Low Population [9]: 2116.87
VIROS, Ex Vivo Amastigotes High Population [9]: 0.85 ± 0.49
VIROS, Ex Vivo Amastigotes Low Population [9]: 1.11 ± 0.48
time from which proliferation was significantly (p < 0.05) reduced compared to MT [10]: ≥ 48 h
inhibitory action compared with MT ([11]; ex vivo amastigotes): more inhibitory action
IC50 [11, 18]: 3.16 ± 0.37 µM
TMRE MFI, Promastigotes High Population [12]: 74,562.13
TMRE MFI, Promastigotes Low Population [12]: 4070.50
VIΔΨm, Promastigotes High Population [12]: 0.27 ± 0.16
VIΔΨm, Promastigotes Low Population [12]: −0.13 ± 0.09
decrease of ΔΨm considering both subpopulations ([13]; ex vivo amastigotes, LP plus HP, IC50, 24 h): 90%
TMRE MFI, ex vivo Amastigotes High Population [13]: 410,112.30
TMRE MFI, ex vivo Amastigotes Low Population [13]: 4174.80
VIΔΨm, ex vivo Amastigotes High Population [13]: −0.59 ± 0.21
VIΔΨm, ex vivo Amastigotes Low Population [13]: −0.31 ± 0.03

CCNc1cc2[s+]c3cc(NCC)c(C)cc3nc2cc1C.F[P-](F)(F)(F)(F)F.F[P-](F)(F)(F)(F)F.F[P-](F)(F)(F)(F)F.F[P-](F)(F)(F)(F)F.N#[O+].[Ru+2].c1cnc2c(c1)ccc1cccnc12.c1cnc2c(c1)ccc1cccnc12 [NMB-P, new methylene blue P]
IC50 [1]: 2.84 µM
CC50 [14]: 150 ± 12 µM
CC50 [4]: 35.1 ± 2.08 µM
CC50 [15]: 240 ± 27.6 µM
CC50 [16]: 69.8 ± 10.4 µM
CC50 [17]: 71.6 ± 1.85 µM
H2DCFDA MFI, Promastigotes High Population [8]: 2,325,902.50 **
H2DCFDA MFI, Promastigotes Low Population [8]: 34,607.80
H2DCFDA MFI, Ex Vivo Amastigotes High Population [9]: 140,291.57
H2DCFDA MFI, Ex Vivo Amastigotes Low Population [9]: 3063.17
VIROS, Ex Vivo Amastigotes High Population [9]: 0.90 ± 0.45
VIROS, Ex Vivo Amastigotes Low Population [9]: 1.27 ± 0.45
time from which proliferation was significantly (p < 0.05) reduced compared to MT [10]: ≥ 96 h
efficacy compared with MT ([11]; ex vivo amastigotes): surpassed the efficacy of MT
inhibitory action compared with MT ([11]; ex vivo amastigotes): more inhibitory action
IC50 [11, 18]: 0.46 ± 0.34 µM
TMRE MFI, Promastigotes High Population [12]: 86,029.23
TMRE MFI, Promastigotes Low Population [12]: 3359.03 *
VIΔΨm, Promastigotes High Population [12]: 0.49 ± 0.36
VIΔΨm, Promastigotes Low Population [12]: −0.28 ± 0.03
TMRE MFI, ex vivo Amastigotes High Population [13]: 642,051.43
TMRE MFI, ex vivo Amastigotes Low Population [13]: 7215.47
VIΔΨm, ex vivo Amastigotes High Population [13]: 0.39 ± 0.13
VIΔΨm, ex vivo Amastigotes Low Population [13]: 0.21 ± 0.04
